Values of other authors, collected in PMC6237330, “Bioactivity of selected materials for coffee substitute” (PLoS ONE, 2018).

Legend:
mice = tested on: mice; parameters: method as in PMID 20237914; details: 2 mg furan/kg bwt
animals = tested on: animals; parameters: method as in earlier work; details: in the laboratory

## c1ccoc1 [furan]
mice
  Tumor induction: may induce tumor

## C=CC(N)=O [ACR, acrylamide]
animals
  Tumors in animals: causes tumors in animals
